Active and inactive are the calls of the source.
What was measured:
[1] = molecular target: T1, Methionyl-tRNA synthetase, putative (Trypanosoma brucei brucei, UniProt Q38C91); format: functional, Trypanosoma brucei brucei strain 927/4 GUTat10.1
T1 sequence (Q38C91 whole entry): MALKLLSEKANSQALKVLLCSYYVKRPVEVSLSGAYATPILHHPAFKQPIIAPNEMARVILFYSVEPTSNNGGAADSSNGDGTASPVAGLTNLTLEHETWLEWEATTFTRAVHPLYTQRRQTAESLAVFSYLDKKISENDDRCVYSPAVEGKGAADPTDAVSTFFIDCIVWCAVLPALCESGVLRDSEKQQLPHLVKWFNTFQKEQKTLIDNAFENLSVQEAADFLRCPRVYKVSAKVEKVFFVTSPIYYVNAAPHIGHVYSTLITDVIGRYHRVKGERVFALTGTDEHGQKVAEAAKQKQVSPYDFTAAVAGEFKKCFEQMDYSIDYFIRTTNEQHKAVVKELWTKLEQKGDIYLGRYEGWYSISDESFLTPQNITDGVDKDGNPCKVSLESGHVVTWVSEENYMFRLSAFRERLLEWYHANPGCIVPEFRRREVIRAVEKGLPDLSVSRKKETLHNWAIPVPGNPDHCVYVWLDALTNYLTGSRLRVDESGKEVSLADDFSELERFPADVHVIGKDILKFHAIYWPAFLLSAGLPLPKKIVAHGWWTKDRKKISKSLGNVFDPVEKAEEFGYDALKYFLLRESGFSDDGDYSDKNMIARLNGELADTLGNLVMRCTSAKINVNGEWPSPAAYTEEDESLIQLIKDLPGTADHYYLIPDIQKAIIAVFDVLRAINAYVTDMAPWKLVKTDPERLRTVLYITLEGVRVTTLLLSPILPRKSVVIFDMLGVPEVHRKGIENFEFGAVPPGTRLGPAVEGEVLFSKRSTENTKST

[2] = system: Streptococcus sp. 'group A'; assay: Streptococcus pyogenes SK(-)GAS viability under kanamycin – luminescence, BacTiterGlo, confirmation, counter-screen for streptokinase expression inhibitor project, dose response (AID 1900); format: functional, organism-based
[3] = Late stage counterscreen for inhibitors of Trypanosoma brucei methionyl tRNA synthetase (MetRS): Luminescence-based cell-based high throughput dose response assay to identify compounds that are cytotoxic to Jurkat human T lymphocyte cells.; format: functional
[4] = molecular target: T1, Methionyl-tRNA synthetase, putative; format: functional, Trypanosoma brucei brucei strain 927/4 GUTat10.1; remark: listed apart in the source
[5] = molecular target: T2, Streptokinase A (Streptococcus pyogenes serotype M1, UniProt P10520); assay: viability-normalized secreted streptokinase activity reduction – plasminogen activation absorbance, OD405, dose response (AID 1914); format: functional, Streptococcus pyogenes M1 GAS;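 note: secreted streptokinase activity via plasminogen activation per viability signal from cell pellet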
T2 sequence (P10520 whole entry): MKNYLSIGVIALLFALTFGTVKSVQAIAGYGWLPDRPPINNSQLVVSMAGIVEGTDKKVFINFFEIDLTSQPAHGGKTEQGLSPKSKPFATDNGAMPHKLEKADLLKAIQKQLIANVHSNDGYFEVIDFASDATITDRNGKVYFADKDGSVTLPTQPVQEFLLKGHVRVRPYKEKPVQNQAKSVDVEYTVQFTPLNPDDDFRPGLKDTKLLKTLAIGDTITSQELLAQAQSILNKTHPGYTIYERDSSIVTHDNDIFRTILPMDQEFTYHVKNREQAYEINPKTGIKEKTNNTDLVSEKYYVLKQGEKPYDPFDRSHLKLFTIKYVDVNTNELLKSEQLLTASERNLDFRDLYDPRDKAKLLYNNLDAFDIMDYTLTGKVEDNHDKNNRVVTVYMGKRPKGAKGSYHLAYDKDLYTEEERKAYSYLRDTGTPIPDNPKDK

[6] = Counterscreen for inhibitors of Trypanosoma brucei methionyl tRNA synthetase (MetRS): Luminescence-based cell-based high throughput dose response assay to identify compounds that are cytotoxic to Jurkat human T lymphocyte cells.; format: functional
[7] = system: Streptococcus; assay: GAS UMAA2166 growth inhibition – luminescence, BacTiterGlo, counter-screen for streptokinase expression inhibitor project, dose response (AID 1915); format: functional, organism-based;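 note: potency for reduction of bacterial viability or growth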
[8] = molecular target: T3, Oxysterols receptor LXR-beta (Homo sapiens, UniProt P55055); assay: LXR agonists, Gal4 luciferase reporter, dose response, counter-screen for ssDAF-12 agonist project, cell-based, luminescence, HEK293, S. stercoralis campaign (AID 720737); format: functional; details: read-out: IC50 (the source's name)
T3 sequence (P55055 whole entry): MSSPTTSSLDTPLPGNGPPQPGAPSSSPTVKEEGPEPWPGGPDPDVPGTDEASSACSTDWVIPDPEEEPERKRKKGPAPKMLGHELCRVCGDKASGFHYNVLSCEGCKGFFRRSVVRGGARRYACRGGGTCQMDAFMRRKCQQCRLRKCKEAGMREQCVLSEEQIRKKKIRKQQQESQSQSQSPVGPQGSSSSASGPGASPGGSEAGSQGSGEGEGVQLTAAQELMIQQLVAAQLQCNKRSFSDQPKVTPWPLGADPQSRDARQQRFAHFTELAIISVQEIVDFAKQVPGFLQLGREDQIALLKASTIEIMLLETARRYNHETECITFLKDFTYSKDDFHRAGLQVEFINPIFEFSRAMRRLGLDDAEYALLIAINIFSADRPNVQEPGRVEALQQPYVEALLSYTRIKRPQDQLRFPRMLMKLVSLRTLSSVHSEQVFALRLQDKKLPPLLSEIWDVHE

[9] = Luminescence-based cell-based high throughput dose response assay to identify activators of the DAF-12 from the parasite S. stercoralis (ssDAF-12).; format: functional
[10] = molecular target: Sphingosine 1-phosphate receptor 2 (Homo sapiens, UniProt O95136); assay: Dose Response Cell Based Assay for Agonists of the S1P2 Receptor. [Related pubchem assays: 729, 736, 843 ]; format: functional
[11] = HIV-1 Vif–A3G interaction blockers – biochemical, TR-FRET, GST-Vif 1-94, biotin-A3G peptide, dose response retest, primary screen (AID 1117319); format: functional;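 note: TR-FRET signal of purified GST-Vif binding a biotinylated A3G peptide; inhibitors lower the FRET signal by blocking Vif and A3G binding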
[12] = molecular target: T4, Tyrosine-protein phosphatase non-receptor type 7 (Homo sapiens, UniProt P35236); assay: HePTP tyrosine phosphatase activity blockers – biochemical, absorbance, leukemia target, primary screen (AID 521); format: functional
T4 sequence (P35236 whole entry): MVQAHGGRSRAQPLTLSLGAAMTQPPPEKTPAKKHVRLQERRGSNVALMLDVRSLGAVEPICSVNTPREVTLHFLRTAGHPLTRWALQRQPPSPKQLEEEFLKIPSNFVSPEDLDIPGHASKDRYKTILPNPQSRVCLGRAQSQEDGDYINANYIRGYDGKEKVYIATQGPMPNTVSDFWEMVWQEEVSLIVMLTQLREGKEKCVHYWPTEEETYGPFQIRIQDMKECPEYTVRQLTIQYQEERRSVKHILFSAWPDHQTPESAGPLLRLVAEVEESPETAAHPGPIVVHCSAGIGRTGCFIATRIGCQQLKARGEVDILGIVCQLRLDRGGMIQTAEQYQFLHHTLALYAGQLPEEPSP

[13] = molecular target: T5, Mannose-6-phosphate isomerase (Homo sapiens, UniProt P34949); assay: MPI enzyme activity inhibition – biochemical, fluorescence intensity, coupled assay, primary screen (AID 1209)
T5 sequence (P34949 whole entry): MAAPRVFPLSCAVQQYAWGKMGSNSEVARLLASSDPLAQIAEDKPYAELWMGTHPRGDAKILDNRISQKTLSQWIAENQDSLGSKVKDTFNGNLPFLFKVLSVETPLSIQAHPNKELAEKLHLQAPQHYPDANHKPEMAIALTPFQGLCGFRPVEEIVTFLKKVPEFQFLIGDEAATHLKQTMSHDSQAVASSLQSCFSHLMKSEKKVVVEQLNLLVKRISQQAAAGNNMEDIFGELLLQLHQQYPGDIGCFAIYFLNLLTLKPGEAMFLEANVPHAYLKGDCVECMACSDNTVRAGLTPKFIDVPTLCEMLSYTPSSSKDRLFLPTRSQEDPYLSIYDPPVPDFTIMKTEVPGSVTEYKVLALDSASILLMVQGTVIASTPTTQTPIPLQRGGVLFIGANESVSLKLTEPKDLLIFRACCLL

[14] = viability loss in THP-1 monocytes – THP-1 cells, cytotoxicity control for Vif-APOBEC3G degradation inhibitor project, dose response (AID 1117359); format: functional; details: THP-1
[15] = molecular target: T6, Protein Tat (Human immunodeficiency virus type 1 group M subtype B (isolate HXB2)(HIV-1), UniProt P04608); format: functional;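 note: tat binding to TAR RNA read out by fluorescence polarization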
T6 sequence (P04608 whole entry): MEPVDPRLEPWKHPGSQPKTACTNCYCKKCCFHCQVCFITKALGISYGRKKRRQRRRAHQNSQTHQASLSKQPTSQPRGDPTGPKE

[16] = molecular target: T5, Mannose-6-phosphate isomerase; assay: MPI inhibition at elevated mannose 6-phosphate – biochemical, fluorescence intensity, high mannose 6-phosphate, primary screen (AID 1220)
[17] = molecular target: Caspase-6 (Homo sapiens, UniProt P55212); assay: inhibition of CASP6 peptide cleavage – biochemical, VEID-R110 fluorescence, cherry-pick, dose response (AID 720632)
[18] = molecular target: Genome polyprotein (dengue virus type 2, UniProt P29990); assay: flavivirus cap methylation enzyme inhibition – biochemical, confirmation dose response, primary screen (AID 588689); format: functional
[19] = molecular target: T7, Polyadenylate-binding protein 1 (Homo sapiens, UniProt P11940); assay: MLLE binding blockers, Cy5 peptide tracer – biochemical, fluorescence polarization, Cy5-PAM2 peptide, secondary, miRNA deadenylation inhibitor project, dose response (AID 602260); format: functional; details: read-out: IC50_Mean
[20] = molecular target: T7, Polyadenylate-binding protein 1; assay: MLLE domain peptide-binding blockers, IC50 – biochemical, fluorescence polarization, FITC-PAM2 peptide, dose response (AID 602259); format: functional; details: read-out: IC50_Mean
[21] = molecular target: T8, NAD-dependent protein deacylase sirtuin-5, mitochondrial (Homo sapiens, UniProt Q9NXA8); assay: sirtuin-5 deacylation blockers, concentration series – biochemical, fluorescence imaging, cherry-pick, set 5, dose response (AID 720591);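 note: desuccinylation of succinyl peptide AMC substrate read as fluorescence after trypsin release; potency of inhibitors that lower fluorescence and may act on trypsin instead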
[22] = molecular target: T8, NAD-dependent protein deacylase sirtuin-5, mitochondrial; assay: blockers of sirtuin-5 peptide desuccinylation – biochemical, fluorescence imaging, cherry-pick, set 6, dose response (AID 720597)
[23] = molecular target: T9, Bcl-2-like protein 10 (Homo sapiens, UniProt Q9HD36); assay: Bcl-B/TR3 peptide binding disruption – biochemical, fluorescence polarization, FITC-TR3 peptide, selectivity assay for Bfl-1 inhibitor project, primary screen (AID 748);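 note: fluorescence polarization from a fluorescein-labelled TR3 peptide binding purified Bcl-B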
T9 sequence (Q9HD36 whole entry): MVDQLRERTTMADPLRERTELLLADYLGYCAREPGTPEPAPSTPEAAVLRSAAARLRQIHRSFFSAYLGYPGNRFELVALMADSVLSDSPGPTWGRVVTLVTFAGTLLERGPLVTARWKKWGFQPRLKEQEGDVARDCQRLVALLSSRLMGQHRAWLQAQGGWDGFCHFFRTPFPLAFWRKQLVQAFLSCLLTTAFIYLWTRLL

T8 sequence (Q9NXA8 whole entry): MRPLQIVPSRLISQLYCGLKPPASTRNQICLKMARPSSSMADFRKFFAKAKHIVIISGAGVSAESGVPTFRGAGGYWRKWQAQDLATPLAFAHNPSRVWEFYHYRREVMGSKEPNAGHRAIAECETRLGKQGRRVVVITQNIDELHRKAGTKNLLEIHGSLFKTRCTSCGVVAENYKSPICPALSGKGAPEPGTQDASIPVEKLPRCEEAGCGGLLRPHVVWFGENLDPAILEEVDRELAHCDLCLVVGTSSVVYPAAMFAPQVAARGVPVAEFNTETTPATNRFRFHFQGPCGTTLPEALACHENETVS
T7 sequence (P11940 whole entry, the tested form may be a part): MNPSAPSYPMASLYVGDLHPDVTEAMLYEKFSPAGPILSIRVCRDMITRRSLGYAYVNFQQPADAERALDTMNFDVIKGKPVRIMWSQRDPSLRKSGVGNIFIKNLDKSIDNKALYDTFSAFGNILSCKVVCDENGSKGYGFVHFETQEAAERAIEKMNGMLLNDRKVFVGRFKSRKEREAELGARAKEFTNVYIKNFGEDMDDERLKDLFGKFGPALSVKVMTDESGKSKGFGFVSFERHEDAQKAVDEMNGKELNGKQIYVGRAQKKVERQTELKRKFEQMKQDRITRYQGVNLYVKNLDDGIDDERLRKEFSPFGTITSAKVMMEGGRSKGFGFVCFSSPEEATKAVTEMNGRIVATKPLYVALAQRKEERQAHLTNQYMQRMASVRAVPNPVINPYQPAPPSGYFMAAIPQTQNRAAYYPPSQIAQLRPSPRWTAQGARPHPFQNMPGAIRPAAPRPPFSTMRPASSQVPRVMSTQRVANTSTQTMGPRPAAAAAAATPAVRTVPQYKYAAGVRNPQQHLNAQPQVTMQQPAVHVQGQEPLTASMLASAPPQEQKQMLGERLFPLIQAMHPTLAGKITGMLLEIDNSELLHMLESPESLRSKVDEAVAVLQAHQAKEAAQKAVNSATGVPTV
Sequence of Caspase-6 (P55212 24-179 limits assumed): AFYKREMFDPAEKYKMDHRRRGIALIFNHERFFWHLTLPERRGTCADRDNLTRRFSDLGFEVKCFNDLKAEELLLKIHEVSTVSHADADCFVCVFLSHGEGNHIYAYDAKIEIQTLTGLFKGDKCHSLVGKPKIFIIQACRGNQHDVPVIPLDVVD
Sequence of Caspase-6 (P55212 194-293 limits assumed): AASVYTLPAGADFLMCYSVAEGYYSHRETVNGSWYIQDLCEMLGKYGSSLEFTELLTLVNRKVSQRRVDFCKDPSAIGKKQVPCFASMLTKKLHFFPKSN
Sequence of Sphingosine 1-phosphate receptor 2 (O95136 whole entry): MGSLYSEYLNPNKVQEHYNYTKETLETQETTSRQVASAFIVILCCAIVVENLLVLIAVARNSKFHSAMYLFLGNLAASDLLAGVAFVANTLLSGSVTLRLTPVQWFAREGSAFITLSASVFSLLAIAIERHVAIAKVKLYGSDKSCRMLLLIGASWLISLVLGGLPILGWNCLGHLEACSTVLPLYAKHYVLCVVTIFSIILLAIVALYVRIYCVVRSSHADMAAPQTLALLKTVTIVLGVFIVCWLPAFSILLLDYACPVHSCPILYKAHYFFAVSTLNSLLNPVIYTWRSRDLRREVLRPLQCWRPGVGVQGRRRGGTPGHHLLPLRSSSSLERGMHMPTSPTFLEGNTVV
Sequence of Genome polyprotein (P29990 2492-3391 limits assumed): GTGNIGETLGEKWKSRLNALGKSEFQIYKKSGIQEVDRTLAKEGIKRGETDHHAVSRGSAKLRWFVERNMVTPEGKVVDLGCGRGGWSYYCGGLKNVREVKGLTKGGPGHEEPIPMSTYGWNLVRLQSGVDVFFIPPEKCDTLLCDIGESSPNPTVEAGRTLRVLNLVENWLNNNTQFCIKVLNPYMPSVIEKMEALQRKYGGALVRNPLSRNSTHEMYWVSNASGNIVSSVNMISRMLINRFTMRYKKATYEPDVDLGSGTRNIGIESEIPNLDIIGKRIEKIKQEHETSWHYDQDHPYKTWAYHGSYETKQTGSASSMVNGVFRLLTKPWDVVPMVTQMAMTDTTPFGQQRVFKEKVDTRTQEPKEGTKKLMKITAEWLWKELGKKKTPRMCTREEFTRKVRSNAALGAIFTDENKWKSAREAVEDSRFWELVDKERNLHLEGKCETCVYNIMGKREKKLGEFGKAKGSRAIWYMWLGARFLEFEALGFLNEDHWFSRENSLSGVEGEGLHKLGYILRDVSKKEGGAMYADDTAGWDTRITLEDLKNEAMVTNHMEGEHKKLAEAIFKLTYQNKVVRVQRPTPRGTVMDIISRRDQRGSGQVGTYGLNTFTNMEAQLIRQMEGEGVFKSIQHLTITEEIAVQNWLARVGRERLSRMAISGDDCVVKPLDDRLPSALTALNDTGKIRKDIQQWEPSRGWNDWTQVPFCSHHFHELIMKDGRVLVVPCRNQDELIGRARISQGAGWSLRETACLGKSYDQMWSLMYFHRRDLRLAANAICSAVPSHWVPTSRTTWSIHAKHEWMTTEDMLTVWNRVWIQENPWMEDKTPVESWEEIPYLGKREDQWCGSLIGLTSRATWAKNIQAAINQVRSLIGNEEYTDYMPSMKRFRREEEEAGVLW

## O=C1CC(N(CCc2ccccc2)C(=S)Nc2ccccc2)C(=O)N1c1ccc(Br)cc1 (configuration not stated)
[1]
  IC50: 0.743 µM (active)
[2]
  EC50: 2.87 µM (active)
[3]
  IC50: 15.4 µM (inactive)
[4]
  IC50: 0.46 µM (active)
[5]
  EC50: 2.67 µM (active)
[6]
  IC50: 25.3 µM (inactive)
[7]
  EC50: 18.3 µM (active)

## Cc1cc(NC(=S)NC(=O)/C=C/c2ccc(S(=O)(=O)N3CCOCC3)cc2)ccc1Br
[8]
  EC50: > 67.5 µM (inactive)
[9]
  IC50: > 67.5 µM (inactive)

## COc1ccccc1CNC(=O)c1c(N)n(CCCN2CCOCC2)c2nc3ccccc3nc12
[10]
  EC50: 3.9 µM (active)

## C[C@@H]1NC(=O)[C@H](CCC(N)=O)NC(=O)c2cc([N+](=O)[O-])cc(I)c2NCCC[C@@H](C(N)=O)NC1=O
[11]
  IC50: > 100 µM (active)

## Oc1ccccc1C1NN=C(c2ccccc2)S1 (configuration not stated)
[8]
  EC50: > 67.5 µM (inactive)
[9]
  IC50: > 67.5 µM (inactive)

## CCc1nnc(NC(=O)CSc2nnc(-c3ccoc3C)n2CC(C)C)s1
[12]
  IC50: > 100 µM (not active)

## COc1cc(CNc2ccc3[nH]c(O)nc3c2)cc(Cl)c1OCC(=O)NC(C)(C)C
[13]
  IC50: > 50 µM (not active)
[11]
  IC50: > 51.4 µM (active)
[14]
  CC50: > 40 µM (active)
[15]
  IC50: 50.5 µM (inconclusive)
[16]
  IC50: > 50 µM (not active)

## O=[N+]([O-])c1cc2ccccc2c(O)c1O
[17]
  AC50: 13.4 µM (active)
[18]
  IC50: 7.79 µM (active)
[19]
  IC50: > 66 µM (inactive)
[20]
  IC50: > 66 µM (inactive)

## COc1ccccc1-n1c(SCC(=O)Nc2ccc(Cl)cc2)nc(=O)c(Cc2ccccc2)c1O
[1]
  IC50: 5.59 µM (active)
[3]
  IC50: 77.1 µM (inactive)
[4]
  IC50: 5.07 µM (active)
[6]
  IC50: 74.5 µM (inactive)

## O=C(O)C1=C2C(=O)Nc3cccc(c32)C2(C1)C(=O)Nc1ccccc12 (configuration not stated)
[21]
  AC50: 25.1 µM (active)

## Cc1ccc(S(=O)(=O)Nc2ccc3c(c2)C(=O)N([C@@H](C)CO)C[C@@H](C)[C@H](CN(C)S(=O)(=O)c2ccc(F)cc2)OCCCC[C@@H](C)O3)cc1
[22]
  AC50: > 30 µM (inactive)

## O=C(c1ccccc1F)N1C[C@H]2[C@@H](c3ccccc31)[C@@H](CO)N2CC1CCCCC1
[22]
  AC50: > 30 µM (inactive)

## C/C(N)=C(/C#N)C(=O)CSc1nnc(Nc2c(C)cccc2C)s1
[12]
  IC50: 30.2 µM (active)
[23]
  IC50: 17.2 µM (active)

— ChEMBL document CHEMBL1201862, “PubChem BioAssay data set” (2004)
